Reference: patent US20120121591A1 (priority 2009, published 2012)
Like-named read-outs stand apart in the source and are kept apart here.

Assays:
[1] = test system: IL-2 secretion from T cells in human whole blood; type: cell-based
[2] = test system: IFN-g secretion from T cells in human whole blood; type: cell-based
[3] = read-out: WB (IFNg) IC50 (nM, Avg)
[4] = read-out: WB (IFNg) IC5- (nM, Avg)

Compound	IC50 [2, 3] [nM]	IC50 [2, 4] [nM]	other results
CC[C@H](C)[C@@H]1NC(=O)[C@@H](NC(=O)[C@H](CO)NC(=O)[C@@H](N)CCCNC(=N)N)CSSC[C@@H](C(N)=O)NC(=O)[C@H]([C@@H](C)O)NC(=O)CNC(=O)[C@@H]2CSSC[C@@H]3NC(=O)[C@H](CCCCN)NC(=O)[C@H](Cc4ccccc4)NC(=O)[C@H](C)NC(=O)[C@H]([C@@H](C)O)NC(=O)[C@H](CSSC[C@H](NC(=O)[C@H](Cc4ccccc4)NC(=O)[C@H](CO)NC(=O)[C@H](CC(C)C)NC(=O)[C@H](CCCNC(=N)N)NC(=O)[C@H](Cc4ccc(O)cc4)NC(=O)[C@H](CCCCN)NC(=O)[C@H](CCSC)NC(=O)[C@H](CO)NC(=O)[C@H](Cc4c[nH]cn4)NC(=O)[C@H](CCCCN)NC3=O)C(=O)N[C@@H](CCCNC(=N)N)C(=O)N[C@@H](CCCCN)C(=O)N[C@@H]([C@@H](C)O)C(=O)N2)NC(=O)[C@H](CCCNC(=N)N)NC(=O)[C@H](CO)NC(=O)[C@H](CCCCN)NC(=O)[C@@H]2CCCN2C(=O)[C@H]([C@@H](C)CC)NC(=O)[C@H]([C@@H](C)O)NC(=O)[C@H](CC(=O)O)NC1=O [[Lys16]ShK-amide]	–	–	IC50 ([1]; read-out: WB (IL-2) IC50): 0.1 nM
CC[C@H](C)[C@@H]1NC(=O)[C@@H](NC(=O)[C@H](CO)NC(=O)[C@@H](N)CCCNC(=N)N)CSSC[C@@H](C(=O)O)NC(=O)[C@H]([C@@H](C)O)NC(=O)[C@H](CCCCN)NC(=O)[C@@H]2CSSC[C@@H]3NC(=O)[C@H](CCC(N)=O)NC(=O)[C@H](Cc4ccccc4)NC(=O)[C@H](C)NC(=O)[C@H]([C@@H](C)O)NC(=O)[C@H](CSSC[C@H](NC(=O)[C@H](Cc4ccccc4)NC(=O)[C@H](CO)NC(=O)[C@H](CC(C)C)NC(=O)[C@H](CCCNC(=N)N)NC(=O)[C@H](Cc4ccc(O)cc4)NC(=O)[C@H](CCCCN)NC(=O)[C@H](CCSC)NC(=O)[C@H](CO)NC(=O)[C@H](Cc4c[nH]cn4)NC(=O)[C@H](CCCCN)NC3=O)C(=O)N[C@@H](CCCNC(=N)N)C(=O)N[C@@H](CCCCN)C(=O)N[C@@H]([C@@H](C)O)C(=O)N2)NC(=O)[C@H](CCCNC(=N)N)NC(=O)[C@H](CO)NC(=O)[C@H](CCCCN)NC(=O)[C@@H]2CCCN2C(=O)[C@H]([C@@H](C)CC)NC(=O)[C@H]([C@@H](C)O)NC(=O)[C@H](CC(=O)O)NC1=O [[Lys33]ShK]	0.317	–	–
Fc.L20FcLoopShk (scFc): single-chain Fc with ShK inserted in the second Fc domain, 20-residue linker	–	–	IC50 ([1]; read-out: In Vitro IC50, whole blood assay (inhibition of IL-2), average results): 2.01 nM
[1-Nal14]ShK (RSCIDTIPKSRCTXFQCKHSMKYRLSFCRKTCGTC; non-natural residues)	0.11	–	–
CC[C@H](C)[C@@H]1NC(=O)[C@@H](NC(=O)[C@H](CO)NC(=O)[C@@H](N)CCCNC(=N)N)CSSC[C@@H](C(=O)O)NC(=O)[C@H]([C@@H](C)O)NC(=O)CNC(=O)[C@@H]2CSSC[C@@H]3NC(=O)[C@H](CCC(N)=O)NC(=O)[C@H](Cc4ccccc4)NC(=O)[C@H](C)NC(=O)[C@H]([C@@H](C)O)NC(=O)[C@H](CSSC[C@H](NC(=O)[C@H](Cc4ccccc4)NC(=O)[C@H](CO)NC(=O)[C@H](CC(C)C)NC(=O)[C@H](CCCNC(=N)N)NC(=O)[C@H](Cc4ccc(O)cc4)NC(=O)[C@H](CCCCN)NC(=O)[C@H](CCSC)NC(=O)[C@H](CO)NC(=O)[C@H](CCC(=O)O)NC(=O)[C@H](CCCCN)NC3=O)C(=O)N[C@@H](CCCNC(=N)N)C(=O)N[C@@H](CCCCN)C(=O)N[C@@H]([C@@H](C)O)C(=O)N2)NC(=O)[C@H](CCCNC(=N)N)NC(=O)[C@H](CO)NC(=O)[C@H](CCCCN)NC(=O)[C@@H]2CCCN2C(=O)[C@H]([C@@H](C)CC)NC(=O)[C@H]([C@@H](C)O)NC(=O)[C@H](CC(=O)O)NC1=O [[Glu19]ShK]	–	0.215	–
CC[C@H](C)[C@@H]1NC(=O)[C@@H](NC(=O)[C@H](CO)NC(=O)[C@@H](N)CCCNC(=N)N)CSSC[C@@H](C(=O)O)NC(=O)[C@H]([C@@H](C)O)NC(=O)CNC(=O)[C@@H]2CSSC[C@@H]3NC(=O)[C@H](CCC(N)=O)NC(=O)[C@H](Cc4ccccc4)NC(=O)[C@H](C)NC(=O)[C@H]([C@@H](C)O)NC(=O)[C@H](CSSC[C@H](NC(=O)[C@H](Cc4ccccc4)NC(=O)[C@H](CO)NC(=O)[C@H](CC(C)C)NC(=O)[C@H](CCCNC(=N)N)NC(=O)[C@H](Cc4ccc(O)cc4)NC(=O)[C@H](CCC(=O)O)NC(=O)[C@H](CCSC)NC(=O)[C@H](CO)NC(=O)[C@H](Cc4c[nH]cn4)NC(=O)[C@H](CCCCN)NC3=O)C(=O)N[C@@H](CCCNC(=N)N)C(=O)N[C@@H](CCCCN)C(=O)N[C@@H]([C@@H](C)O)C(=O)N2)NC(=O)[C@H](CCCNC(=N)N)NC(=O)[C@H](CO)NC(=O)[C@H](CCCCN)NC(=O)[C@@H]2CCCN2C(=O)[C@H]([C@@H](C)CC)NC(=O)[C@H]([C@@H](C)O)NC(=O)[C@H](CC(=O)O)NC1=O [[Glu22]ShK]	–	100	–
CC[C@H](C)[C@@H]1NC(=O)[C@@H](NC(=O)[C@H](CO)NC(=O)[C@@H](N)CCCNC(=N)N)CSSC[C@@H](C(=O)O)NC(=O)[C@H]([C@@H](C)O)NC(=O)CNC(=O)[C@@H]2CSSC[C@@H]3NC(=O)[C@H](CCC(N)=O)NC(=O)[C@H](Cc4ccccc4)NC(=O)[C@H](C)NC(=O)[C@H]([C@@H](C)O)NC(=O)[C@H](CSSC[C@H](NC(=O)[C@H](Cc4ccccc4)NC(=O)[C@H](CO)NC(=O)[C@H](CC(C)C)NC(=O)[C@H](CCCNC(=N)N)NC(=O)[C@H](CCC(=O)O)NC(=O)[C@H](CCCCN)NC(=O)[C@H](CCSC)NC(=O)[C@H](CO)NC(=O)[C@H](Cc4c[nH]cn4)NC(=O)[C@H](CCCCN)NC3=O)C(=O)N[C@@H](CCCNC(=N)N)C(=O)N[C@@H](CCCCN)C(=O)N[C@@H]([C@@H](C)O)C(=O)N2)NC(=O)[C@H](CCCNC(=N)N)NC(=O)[C@H](CO)NC(=O)[C@H](CCCCN)NC(=O)[C@@H]2CCCN2C(=O)[C@H]([C@@H](C)CC)NC(=O)[C@H]([C@@H](C)O)NC(=O)[C@H](CC(=O)O)NC1=O [[Glu23]ShK]	–	100	–
CC[C@H](C)[C@@H]1NC(=O)[C@@H](NC(=O)[C@H](CO)NC(=O)[C@@H](N)CCCNC(=N)N)CSSC[C@@H](C(=O)O)NC(=O)[C@H]([C@@H](C)O)NC(=O)[C@H](Cc2cccc3ccccc23)NC(=O)[C@@H]2CSSC[C@@H]3NC(=O)[C@H](CCC(N)=O)NC(=O)[C@H](Cc4ccccc4)NC(=O)[C@H](C)NC(=O)[C@H]([C@@H](C)O)NC(=O)[C@H](CSSC[C@H](NC(=O)[C@H](Cc4ccccc4)NC(=O)[C@H](CO)NC(=O)[C@H](CC(C)C)NC(=O)[C@H](CCCNC(=N)N)NC(=O)[C@H](Cc4ccc(O)cc4)NC(=O)[C@H](CCCCN)NC(=O)[C@H](CCSC)NC(=O)[C@H](CO)NC(=O)[C@H](Cc4c[nH]cn4)NC(=O)[C@H](CCCCN)NC3=O)C(=O)N[C@@H](CCCNC(=N)N)C(=O)N[C@@H](CCCCN)C(=O)N[C@@H]([C@@H](C)O)C(=O)N2)NC(=O)[C@H](CCCNC(=N)N)NC(=O)[C@H](CO)NC(=O)[C@H](CCCCN)NC(=O)[C@@H]2CCCN2C(=O)[C@H]([C@@H](C)CC)NC(=O)[C@H]([C@@H](C)O)NC(=O)[C@H](CC(=O)O)NC1=O [[1-Nal33]ShK]	1.43	–	–
CC[C@H](C)[C@@H]1NC(=O)[C@@H](NC(=O)[C@H](CO)NC(=O)[C@@H](N)CCCNC(=N)N)CSSC[C@@H](C(=O)O)NC(=O)[C@H]([C@@H](C)O)NC(=O)CNC(=O)[C@@H]2CSSC[C@@H]3NC(=O)[C@H](CCC(N)=O)NC(=O)[C@H](Cc4ccccc4)NC(=O)[C@H](C)NC(=O)[C@H]([C@@H](C)O)NC(=O)[C@H](CSSC[C@H](NC(=O)[C@H](Cc4ccccc4)NC(=O)[C@H](CO)NC(=O)[C@H](CC(C)C)NC(=O)[C@H](CCCNC(=N)N)NC(=O)[C@H](Cc4ccc(O)cc4)NC(=O)[C@H](CCCCN)NC(=O)[C@H](CCSC)NC(=O)[C@H](CO)NC(=O)[C@H](Cc4c[nH]cn4)NC(=O)[C@H](CCCCN)NC3=O)C(=O)N[C@@H](CCCNC(=N)N)C(=O)N[C@@H](CCCCN)C(=O)N[C@@H]([C@@H](C)O)C(=O)N2)NC(=O)[C@H](CCCCN)NC(=O)[C@H](CO)NC(=O)[C@H](CCCCN)NC(=O)[C@@H]2CCCN2C(=O)[C@H]([C@@H](C)CC)NC(=O)[C@H]([C@@H](C)O)NC(=O)[C@H](CC(=O)O)NC1=O [[Lys11]ShK]	–	–	IC50 ([1]; read-out: WB (IL-2) IC50 (nM, Avg)): 0.095 nM
CC[C@H](C)[C@@H]1NC(=O)[C@@H](NC(=O)[C@H](CO)NC(=O)[C@@H](N)CCCNC(=N)N)CSSC[C@@H](C(=O)O)NC(=O)[C@H]([C@@H](C)O)NC(=O)CNC(=O)[C@@H]2CSSC[C@@H]3NC(=O)[C@H](CCC(N)=O)NC(=O)[C@H](Cc4ccccc4)NC(=O)[C@H](C)NC(=O)[C@H]([C@@H](C)O)NC(=O)[C@H](CSSC[C@H](NC(=O)[C@H](Cc4ccccc4)NC(=O)[C@H](CO)NC(=O)[C@H](CC(C)C)NC(=O)[C@H](CCCNC(=N)N)NC(=O)[C@H](Cc4ccc(O)cc4)NC(=O)[C@H](CCCCN)NC(=O)[C@H](CCSC)NC(=O)[C@H](CO)NC(=O)[C@H](Cc4c[nH]cn4)NC(=O)[C@H](CCCCN)NC3=O)C(=O)N[C@@H](CCCNC(=N)N)C(=O)N[C@@H](CCCCN)C(=O)N[C@@H]([C@@H](C)O)C(=O)N2)NC(=O)[C@H](CCCNC(=N)N)NC(=O)[C@H](CO)NC(=O)[C@H](CCCCN)NC(=O)[C@H](CCCCN)NC(=O)[C@H]([C@@H](C)CC)NC(=O)[C@H]([C@@H](C)O)NC(=O)[C@H](CC(=O)O)NC1=O [[Lys8]ShK]	0.974	–	–
CC[C@H](C)[C@@H]1NC(=O)[C@@H](NC(=O)[C@H](CO)NC(=O)[C@@H](N)CCCNC(=N)N)CSSC[C@@H](C(=O)O)NC(=O)[C@H]([C@@H](C)O)NC(=O)CNC(=O)[C@@H]2CSSC[C@@H]3NC(=O)[C@H](CCC(N)=O)NC(=O)[C@H](Cc4ccccc4)NC(=O)[C@H](C)NC(=O)[C@H]([C@@H](C)O)NC(=O)[C@H](CSSC[C@H](NC(=O)[C@H](Cc4ccccc4)NC(=O)[C@H](CO)NC(=O)[C@H](CC(C)C)NC(=O)[C@H](CCC(=O)O)NC(=O)[C@H](Cc4ccc(O)cc4)NC(=O)[C@H](CCCCN)NC(=O)[C@H](CCSC)NC(=O)[C@H](CO)NC(=O)[C@H](Cc4c[nH]cn4)NC(=O)[C@H](CCCCN)NC3=O)C(=O)N[C@@H](CCCNC(=N)N)C(=O)N[C@@H](CCCCN)C(=O)N[C@@H]([C@@H](C)O)C(=O)N2)NC(=O)[C@H](CCCNC(=N)N)NC(=O)[C@H](CO)NC(=O)[C@H](CCCCN)NC(=O)[C@@H]2CCCN2C(=O)[C@H]([C@@H](C)CC)NC(=O)[C@H]([C@@H](C)O)NC(=O)[C@H](CC(=O)O)NC1=O [[Glu24]ShK]	–	4.07	–
